# Measured values published in US8361999B2, “Methods of treating cholesterol gallstone disease with ezetimibe” (Pontificia Universidad Catolica de Chile, priority 2005, dated 2013).
# Marks after values point to notes of the source that are not given here.
# Columns and labels:
# Assay type in all cases: in vivo, mouse
# Bsep = test: Hepatic expression of bile salts transporter Bsep (Western blot)
# Description: Expression of Specific Bile Salts (Ntcp, Bsep), Phospholipid (MDR2) and Organic Anions or Glutathione (MRP2); And Determination of Glutathione Synthesis (Gluthamylcystein-Synthetase (GGCS)).
# Western Blot analysis. We evaluated protein expression levels of the bile salts transporters Ntcp (sinusoidal pole) and Bsep (cannicular pole) by Western blotting in total liver membranes or liver plasma membranes from mice treated with the different diets. Total membranes were obtained from liver fragments homogenized in Tris-HCl pH 7.5, MgCl2 and sucrose. The homogenates were centrifuged at 1,000 g to separate nuclei, and the supernatants were then centrifuged at 100,000 g. The pellet, containing the total membranes, was resuspended in the buffer described above and proteins were quantified by the Bradford method. Aliquots containing 50 μg protein were separated by SDS-PAGE and transfer to nitrocellulose. The membranes were incubated in buffer TBS-T (Tris-HCl pH 7.5, NaCl and Tween-20), milk 5% w/v plus the antibodies to evaluate the different proteins (Bsep, Ntcp). The secondary antibodies were IgG anti rabbit or anti mouse coupled to peroxidase. The protein signals were detected by the ECL method.
# C57BL/6J mice [1] = test: Determination of hepatic cholesterol, protocol #1; details: 14 days
# Procedure: (§1) Surgery and sample harvest. The groups were maintained for 14 days (protocol #1) or 30 days (protocol #2) in the different experimental conditions. During the last three days of the protocols, 24 h depositions were collected from the different groups (pool) to determine the fecal excretion of neutral sterols (cholesterol) and acidic sterols (bile salts). At the end of the time established in the protocols, the mice were anesthetized (between 08:00-10:00 AM) with an intraperitoneal pentobarbital injection in doses of 4.5 mg per 100 gr body weight (Amigo et al., 2000) and subjected to surgery. Standardized surgery consists in an extended […] and visualization of abdominal organs, including liver, biliary tree and gallbladder. First, we performed a resection of the gallbladder (cholecystectomy), with the cystic duct previously ligated (Amigo et al., 2002; Amigo et al., 2000; Amigo et al., 2003b). The gallbladder is removed and visually inspected to determine the presence of gallstones. Then, the gallbladder bile is extracted to analyze the presence of cholesterol crystals in the fresh samples under the microscope with polarized light (20×). Aliquots are stored at −20° C. for subsequent chemical analysis. Afterwards, the common biliary duct is cannulated (biliary fistula) with a P-10 polyethylene cannula to collect bile during 15 minutes, determine bile flow by gravimetry (1 g bile=1 ml; bile flow is expressed as μl/min/g of mouse liver) and for posterior chemical analysis of biliary lipids and glutathione, as specified later. […] Then, the liver is removed, weighted, frozen in liquid nitrogen and stored at −80 for subsequent analyses. The plasma is separated by centrifugation at 1,500 rpm and stored at −80° C. for later analysis. The animal protocols were approved by our institution Ethics Committee and the animals were treated according to international care rules for experimental animals.
# Determination of hepatic cholesterol. The hepatic cholesterol content is quantified from hepatic tissue (50 mg) that is homogenized in chloroform/methanol 2:1. The homogenate is incubated at 50° C. for 30 minutes, and then distilled H2O is added to separate the phases. The mix is vortexed and incubated at 4° C. for two hours and centrifuged at 1,000 rpm for 20 minutes. The lower phase (hydrophobic-chloroform) is removed and dried under gaseous nitrogen. The lipids on the tube wall are resuspended in chloroform plus Triton X-100 0.5% v/v. Four aliquots are taken and dried at room temperature. Total cholesterol content was measured to half of the tubes by the enzymatic method described earlier for biliary cholesterol. To the other half, free cholesterol was measured in buffer (Tris-HCl pH 7.6, Triton X-100, 0.2% phenol, aminoantipyrine) plus the enzymes cholesterol oxidase and peroxidase. The samples are incubated and quantified in the same way described for total cholesterol. The cholesterol ester content for each sample is calculated as the difference between total cholesterol and free cholesterol. The values obtained in each case are given as mg cholesterol/g liver (Folch et al., 1957).
# C57BL/6J mice [2] = test: Lipid content and cholesterol saturation index in gallbladder bile; details: for Gallbladder Bile Bile salts / Gallbladder Bile Cholesterol / Gallbladder Bile Colesterol Saturation Index / Gallbladder Bile Phospholipids: 14 days
# Procedure: as §1
# Intestinal absorption of cholesterol and bile salts. The capacity of Ezetimibe to inhibit cholesterol and bile salt absorption was indirectly determined by quantification of neutral sterols (cholesterol) and acidic sterols (bile acids) present in the feces collected on day 12, 13 and 14 of the experiment (three days). In order to determine cholesterol (neutral sterols) fecal excretion, the feces were dried at 50° C. for three days and then weighted to obtain an average of fecal excretion per day (in grams). The feces were homogenized in a mortar, and 5 ml 2N NaOH:methanol, 1:1 are added per 100 mg (dry weight) aliquots of the homogenate. The sample is vortex and incubated at 60° C. for 1 h for saponification, then it is cooled and 5 ml petroleum ether is added followed by vigorous agitation to obtain the separation of the hydrophobic and hydrophilic phases. The samples are then centrifuged at 1,000 rpm for 10 minutes and the hydrophobic phase (upper layer) is recovered. Second and third extractions are performed by adding 5 ml petroleum ether to the hydrophilic phase. The hydrophobic phases are dried under gaseous nitrogen and the lipids are resuspended in 1 ml chloroform. 50 μl aliquots, in duplicate, are dried at room temperature, and total cholesterol is quantified according to the enzymatic method described above. The values obtained are expressed as μmoles cholesterol/day/100 g of mouse (Miettinen et al., 1965). In order to determine fecal excretion of bile acids the mice feces were collected during three days (days 12-14), dried at 50° C. for one week and weighted. The feces are then homogenized in a mortar; (^14C) cholic acid, 200,000 cpm is added to 1 g of the homogenate to determine the degree of recovery. The samples are then mixed with NaBr, NaOH and HCl, dissolved in ethanol and incubated at 120° C. for 8 h in a reflux system. The hydrolyzed fecal samples are resuspended in NaOH and dried under gaseous N2. The pellet obtained is resuspended in ethanol and run through Sep-Pak columns to eliminate all bile salts contaminants. […]
smiles,measurement,setting,value
"O=C1[C@H](CC[C@H](O)c2ccc(F)cc2)[C@@H](c2ccc(O)cc2)N1c1ccc(F)cc1 [Ezetimibe, (−)-1-(4-fluorophenyl)-(3R)-[3-(4-fluorophenyl)-(.S)-hydroxypropyl]-(4S)-(4-hydroxyphenyl)-2-azetidinone]","hepatic expression of Bsep, lithogenic diet plus Ezetimibe vs lithogenic diet",Bsep; 14 days,no significant differences
same,Bsep hepatic protein expression level with Ezetimibe,"Bsep; FIG. 6 A, on both diets",does not show significant changes
same,Hepatic Cholesterol Esterified,C57BL/6J mice [1]; Chow + Ezetimibe,0.34 ± 0.16 mg/mL
same,Hepatic Cholesterol Free,C57BL/6J mice [1]; Chow + Ezetimibe,1.91 ± 0.65 mg/mL
same,Hepatic Cholesterol Total,C57BL/6J mice [1]; Chow + Ezetimibe,2.26 ± 0.59 mg/mL
same,Hepatic Cholesterol Esterified,C57BL/6J mice [1]; Lithogenic + Ezetimibe,1.31 ± 0.99^& mg/ml
same,Hepatic Cholesterol Free,C57BL/6J mice [1]; Lithogenic + Ezetimibe,2.59 ± 0.24 mg/mL
same,Hepatic Cholesterol Total,C57BL/6J mice [1]; Lithogenic + Ezetimibe,3.91 ± 1.05*^& mg/ml
same,hepatic cholesterol content smaller with Ezetimibe than with water,C57BL/6J mice [1]; control diet,20%
same,increment of total hepatic cholesterol content,"C57BL/6J mice [1]; lithogenic diet plus Ezetimibe, 360% on lithogenic diet without Ezetimibe",38%
same,Gallbladder Bile Bile salts,C57BL/6J mice [2]; Chow + Ezetimibe,65.00 mmol/L
same,Gallbladder Bile Cholesterol,C57BL/6J mice [2]; Chow + Ezetimibe,1.19 mmol/L
same,Gallbladder Bile Colesterol Saturation Index,C57BL/6J mice [2]; Chow + Ezetimibe,51.7%
same,Gallbladder Bile Phospholipids,C57BL/6J mice [2]; Chow + Ezetimibe,11.62 mmol/L
same,Gallbladder Bile Bile salts,C57BL/6J mice [2]; Lithogenic + Ezetimibe,70.37 mmol/L
same,Gallbladder Bile Cholesterol,C57BL/6J mice [2]; Lithogenic + Ezetimibe,1.35 mmol/L
same,Gallbladder Bile Colesterol Saturation Index,C57BL/6J mice [2]; Lithogenic + Ezetimibe,53.2%
same,Gallbladder Bile Phospholipids,C57BL/6J mice [2]; Lithogenic + Ezetimibe,12.92 mmol/L
same,"changes in cholesterol content, bile salts or lecitine in gallbladder bile",C57BL/6J mice [2]; control diet,did not induce significant changes
same,"cholesterol saturation index, with vs without Ezetimibe",C57BL/6J mice [2]; control diet,similar
same,decrease of cholesterol content in the gallbladder bile,C57BL/6J mice [2]; lithogenic diet,50-60%
same,reduction in the cholesterol saturation index,C57BL/6J mice [2]; lithogenic diet,50%
